Results as given in patent US5670538A, “Use of prodelphinidins for obtaining medicaments intended for the treatment of arthrosis” (Laboratoires Dolisos, priority 1992, dated 1997).

Experiments:
[1] = test system: human articular chondrocytes; assay: Radioimmunoassay of prostaglandins E2 (PGE2) produced in tridimensional culture of human chondrocytes; type: cell-based; conditions: for Amounts of PGE2 in the culture media taken on the 4th and 8th day: 1% Ultroser G, incubation of the 4th to 8th day; for PGE2 in the culture medium: foetal calf serum
From the text: The model used for testing the proanthocyanidols, namely the tridimensional culture of human chondrocytes allows chondrorepair to be quantified by the production of matrix substances: type II collagen, proteoglycans, and chondroresorption by the reduction in the levels of prostaglandin E2 and of OH° and O°2 type free radicals produced.
(§1) 1. Tridimensional culture of human chondrocytes
(§2) The technique used has been described in detail (Bassleer et al., 1986).
(§3) Briefly, human articular chondrocytes are cultivated in DMEM (Dulbecco's Modification of Eagle's Medium--ICN--Gand, Belgium) with either Ultroser G 1% (GIBCO, Gand, Belgium) or 10% of foetal calf serum (ICN--Gand--Belgium), and 50 μg of ascorbic acid/ml added to it. The cartilage originates from the apparently normal zone of heads of human femur suffering from arthrosis, immediately after an operation carried out to insert a total hip prosthesis; it can also originate from the head of a healthy femur, but which has undergone a traumatism and has had to be replaced. This cartilage is then digested by clostridial collagenase 1 mg/ml (Boehringer-Mannheim, Germany) in a buffer (NaCl 120 mM, CaCl2 1 mM, KCl 5 mM, KH2 PO4 1 mM, NaHCO3 25 mM, glucose 2 mM and Hepes 30 mM, pH 7.4) for 24 hours. After 6 successive washings and centrifugations, the chondrocytes, isolated from their matrix, are cultured in flasks (10^6 cells/2 ml of culture medium) placed on a gyrator (10 rpm). The cultures are kept at 37° C. in an atmosphere of air 95%-CO2 5% (Bassleer et al., 1986). Cultivated under these conditions, after 4 to 5 days the chondrocytes form a tridimensional cluster in each flask. These clusters, which at first have a flocculent appearance, then tend to condense during the culture. After two weeks, their diameter is, in general, from 1 to 2 mm.
(§4) The fresh weight of the clusters increases with the duration of the culture, above all during the few first days.
4. Radioimmunoassay of prostaglandins E2 (PGE2)
The radioimmunoassay of PGE2s is carried out according to the method described by Serteyn et al., 1988. The PGE2 is obtained from Sigma (Aldrich-Chemie, Steinheim, Germany) and the ^3 H-PGE2 from NEN (Du Pont de Nemours, Brussels, Belgium). 0.1 ml of incubation buffer (10 mM Tris-HCl […], 0.5% sodium azide (W/V), 1% gelatine (W/V), pH 7.4), 0.1 ml of ^3 H-PGE2 (diluted so as to obtain 10,000 cpm/0.1 ml) and 0.1 ml of antiserum (1/4000) are added successively to 0.1 ml of the sample to be assayed or the reference antigen (0-500 pg). After incubation for 48 hours at 4° C., the free antigen is separated from the antigens bound to the antibodies by a precipitation with carbon-DEXTRAN T70 (0.5 ml per tube). The carbon-Dextran solution contains 5 g/l of neutral carbon, 500 mg of Dextran 70/l. After centrifugation (20 minutes, 3000 rpm, 4° C.), the radioactivity present in the supernatant is measured with a beta counter (Beckman) using liquid scintillation. The sensitivity of the assay is 20 pg/ml.
The accuracy of the method is 5%. The coefficients of the intra- and inter assay variation are 6% and 10% respectively. There is no cross reaction between this anti PGE2 antiserum and other prostanoids (Thromboxane B2, G-keto-PGF1-alpha, PGF2, PGA2), nor with the fatty acids such as arachidonic acid, oleic acid or also linoleic acid.
The results are expressed in quantities of PG, coll. II or PGE2 measured in the culture medium (CM) per μg of DNA. The cumulative measurements are obtained by adding the quantities assayed in the CMs to each renewal of the CM, for successive periods: 0 to 4, 4 to 8, 8 to 12 days of culture. The total production of PG is calculated by adding the cumulative quantities measured in the CMs to those measured in the corresponding clusters. The mean and the standard deviation (m±s.d) are calculated. Comparison of the mean values is carried out using the Mann-Whitney U statistical test. […]

[2] = test system: human articular chondrocytes; assay: Synthesis of DNA by incorporation of 3H-thymidine in the chondrocytes, index of cell proliferation; type: cell-based; conditions: 1, 10 and 100 pg/ml (so in the source); relative to control values
Method: as §1, §2, §3, §4
5. Analysis of the synthesis of DNA by measurement of the incorporation of ^3 H-thymidine
After different culture durations, the chondrocytes are cultivated in nutritive medium with the addition of 2 uCi/ml (5 Ci/mmole) of methyl ^3 H-thymidine (^3 H-TDN) (Amersham, Brussels, Belgium) for 24 hours. […]
The radioactivity incorporated in the cluster is then measured using a beta scintillation counter.

Row | Structure (SMILES) | Amounts of PGE2 in the culture media taken on the 4th and 8th day ([1]; 1 μg/ml) | Amounts of PGE2 in the culture media taken on the 4th and 8th day ([1]; 10 μg/ml) | Amounts of PGE2 in the culture media taken on the 4th and 8th day ([1]; 100 μg/ml) | PGE2 in the culture medium ([1]; 0-4 days, 10 μg/ml) | PGE2 in the culture medium ([1]; 0-4 days, 100 μg/ml) | PGE2 in the culture medium ([1]; 4-8 days, 10 μg/ml) | PGE2 in the culture medium ([1]; 4-8 days, 100 μg/ml) | Incorporation of 3H thymidine in the chondrocytes [2]
1 | Oc1cc(O)c2c(c1)O[C@H](c1cc(O)c(O)c(O)c1)[C@@H](O)[C@@H]2c1c(O)cc(O)c2c1O[C@H](c1cc(O)c(O)c(O)c1)[C@H](O)C2 [Substance Ia, GC-(4 alpha→8) EGC] | 91.5 ± 9 pg/μg of DNA | 44 ± 0.6 pg/μg of DNA | 25 ± 13 pg/μg of DNA | 312 ± 15 pg/μg DNA/96 H | 143 ± 25 pg/μg DNA/96 H | 27 ± 2.5 pg/μg DNA/96 H | 25 ± 3.5 pg/μg DNA/96 H | None of the substances Ia, lb and Ic modifies the incorporation
2 | Oc1cc(O)c2c(c1)O[C@H](c1cc(O)c(O)c(O)c1)[C@@H](O)[C@@H]2c1c(O)cc(O)c2c1O[C@H](c1cc(O)c(O)c(O)c1)[C@@H](O)C2 [Substance Ib, GC-(4 alpha→8) GC] | 129 ± 19 pg/μg of DNA | 76 ± 14 pg/μg of DNA | 48 ± 15 pg/μg of DNA | 130 ± 21 pg/μg DNA/96 H | 121 ± 16 pg/μg DNA/96 H | 30 ± 1.7 pg/μg DNA/96 H | 25 ± 1 pg/μg DNA/96 H | None of the substances Ia, lb and Ic modifies the incorporation
3 | Oc1cc(O)c2c(c1)O[C@H](c1cc(O)c(O)c(O)c1)[C@@H](O)[C@@H]2c1c(O)cc(O)c2c1O[C@H](c1cc(O)c(O)c(O)c1)[C@@H](O)[C@@H]2c1c(O)cc(O)c2c1O[C@H](c1cc(O)c(O)c(O)c1)[C@@H](O)C2 [Substance Ic, GC-(4 alpha→8) GC-(4 a→8)-GC] | 101 ± 7 pg/μg of DNA | 81 ± 12 pg/μg of DNA | 39 ± 10 pg/μg of DNA | 160 ± 17 pg/μg DNA/96 H | 153 ± 15 pg/μg DNA/96 H | 35.5 ± 2.1 pg/μg DNA/96 H | 29 ± 3.5 pg/μg DNA/96 H | None of the substances Ia, lb and Ic modifies the incorporation
